The IC50 is the concentration that inhibits the measured activity by half. As a reminder, the stoichiometry N is a count of units in the complex or per binding partner.

Data set [1] has as its system wild-type C. albicans strain SC5314. Briefly: CLSI MIC broth microdilution. The format is cell-based, Candida albicans. Conditions: for MIC: Candida albicans; for effect on cell growth in all three media: even at 250 µM. As to the method:
We then tested the effects of the six compounds on live cells by determining the minimal inhibitory concentrations (MICs) of these compounds. Following the standard Clinical & Lab Standards Institute (CLSI) MIC broth microdilution methods, wild-type C. albicans strain SC5314 was grown with avasimibe, CBR-5884, tideglusib, ebselen, ML-345, and LOC14 in RPMI MOPS medium (pH 7.0) or alternatively in minimal medium or minimal medium with HEPES (pH 7.0) at 37°C for 48 h, along with a cho1ΔΔ strain as a control (Fig. 3A through C). The concentration of the compounds was varied from 0.5 to 250 µM. […] Ebselen, LOC14, and CBR-5884, on the contrary, stopped cell growth at different concentrations in all three media, with MICs ranging between 7.8 and 31.3 μM (Fig. 3A through D). […] Specific MIC values are summarized in Fig. 3D for all the compounds.
Minimum inhibitory concentration (MIC) was determined following Clinical & Lab Standards Institute (CLSI) MIC broth microdilution protocol (Licensed to Todd Reynolds, license # Ord-1138682) ([98], [99]). Briefly, stock solutions of different compounds (purchased from MedChemExpress) were prepared at a concentration of 10 mM in DMSO and subsequently diluted as required in the same solvent. Wild-type C. albicans strain SC5314, as well as four additional wild-type strains—GDH2346, 3153A, TFPY412, and TFPY2307, were cultured overnight in YPD medium at 30°C, washed with water three times, and then diluted to a concentration of 2 × 10^3 cells/mL (OD600 = 0.00008) in one of the three media [minimal medium, minimal medium buffered with 50 mM HEPES (pH 7.0) and RPMI MOPS (pH 7.0)]. The cho1ΔΔ strain was also included as a control. A volume of 100 µL from each cell suspension was dispensed into the wells of a flat-bottom 96-well plate. An additional 100 µL of corresponding medium, containing twice the final desired concentration of each drug, was added to each well, leading to a final initial inoculum of 1 × 10^3 cells/mL (OD600 = 0.00004). The final DMSO concentration was maintained at 2.5% across all treatments. Following preparation, the plates were incubated at 37°C for 48 h and photos were taken with a Bio-Rad Gel Doc XR + Imaging System.
In general terms: Broth dilution looks for growth in wells or tubes with falling amounts of substance.

In data set [2] the target is purified C. albicans Cho1 (phosphatidylserine synthase) (Candida albicans, UniProt A0A1D8PF32). The data set can be described thus: malachite-green-based nucleotidase-coupled assay, dose-response. In kind it is biochemical. Conditions: top 200 µM, 3 h at 30°C, three replicates. The protocol:
A malachite-green-based nucleotidase-coupled assay was used to measure the PS synthesis activity of Cho1 (Fig. 1B). Cho1 catalyzes the production of PS and cytidylmonophosphate (CMP) from CDP-DAG and serine, where CMP can then be recognized and cleaved by the nucleotidase CD73 to release inorganic phosphate, which is subsequently detected by malachite green. To test whether this malachite-green-based assay can reflect Cho1 activity, a time-course test was performed with a fixed amount of purified Cho1 in the presence of substrates (Fig. 1C).
The bioactives library was purchased from Selleck in 2014, and the remaining libraries (anti-infectives and mechanism of action libraries) were assembled from compounds available at the Chemical Biology and Therapeutics Department at St. Jude Children’s Research Hospital. The anti-infectives library contains a curated list of antimicrobials and antiviral agents ([95]). The bioactive library has a compilation of compounds acquired from commercial sources and external academic collaborators. The mechanism of action set is a dynamic set of well-annotated compounds with comprehensive coverage of human targets and mechanisms of action ([96]). All compounds were dissolved in DMSO and 100 nL was transferred to a 384-well clear bottom plate (ThermoFisher Scientific, cat# 265203) using a Beckman Echo 650 acoustic liquid handler. Equal volumes of either the selective CD73 nucleotidase inhibitor AB680 at a final concentration of 1 µM (MedChemExpress, cat# HY-125286) or DMSO were used as positive and negative controls, respectively. A total of 30–35 ng of purified Cho1 protein was used in each reaction in 50 mM Tris-HCl (pH 8.0) for primary screening, combined with 100 µM CDP-DAG (Avanti, cat# 870510), 5 mM serine, 0.4 ng CD73 nucleotidase (R&D systems, cat# EA002), 1 mM MnCl2, 0.1% APX-100, and 0.1% digitonin, in a total volume of 10 µL. Counter screen reactions were set up by replacing only the purified Cho1 with 150 µM CMP, with all other components remaining constant. The 10 µL primary and counter screening reactions were delivered to each well of 384-well assay plates containing pre-aliquoted compounds from the library using a Multidrop Combi (ThermoFisher Scientific). […] After media transfer, assay plates were incubated for 3 h at 30°C. Plates were then removed and 32 µL of malachite green mixture [6 µL malachite A (2%, wt/vol, ammonium molybdate and 20%, vol/vol, sulfuric acid in H2O) +20 µL H2O + 6 µL malachite B (0.1%, wt/vol, malachite green oxalate and 0.5%, wt/vol, polyvinyl alcohol in H2O)] were added to each well via a MultiDrop Combi and incubated for an additional 10 min at room temperature. After incubation, plates were briefly centrifuged at 500 × g and absorbance at 620 nm was then measured using a Cytation7 plate reader (Biotek, Winooski, VT). Raw absorbance values of the compounds were normalized to DMSO (0% inhibition) and AB680 (100% inhibition) from both primary and counter screens, and % Δinhibition was calculated by […]. Z-factors for each plate were calculated using the in-house program RISE (Robust Investigation of Screening Experiments). All non-PAINs compounds that had >80% Δinhibition progressed to dose-response testing (82 total compounds). Dose-response experiments were performed in triplicate as described above using a 10-point, threefold serial dilution with the top concentration for each compound tested being 200 µM (range: 0.010161–200 μM). The absorbance at 620 nm was then measured using a PHERAstar FS multilabel reader (BMG, Cary, NC). Raw values were once again normalized to DMSO (0% inhibition) and AB680 (100% inhibition) and Z-factors for each plate were calculated using RISE. […]

Data set [3] can be described thus: precipitation in MIC media. The format is physicochemical.
Data set [4] concerns the molecule itself. The data set can be described thus: native gel or EMSA; blue native PAGE of purified tag-free Cho1 in digitonin, stained with Coomassie Blue R-250; MW estimated with the band analysis tool of Quantity One.
Where [5] appears, read: 10-point dose-response, read-out: Best-fit IC50, inhibition of Cho1.
Where [6] appears, read: SC5314, RPMI MOPS pH 7.0, 37°C, 48 h, read-out: Minimal Inhibitory Concentration (MIC): RPMI, MOPS 7.0.
The mark [7] stands for this setting: SC5314, minimal medium with 50 mM HEPES pH 7.0, 37°C, 48 h, read-out: Minimal Inhibitory Concentration (MIC): MM, HEPES 7.0.
Where [8] appears, read: SC5314, minimal medium, 37°C, 48 h, read-out: Minimal Inhibitory Concentration (MIC): MM.

≈ marks a conversion by molar mass, not a printed value. Where “and” joins values, the source holds several entries; their conditions need not be identical. Equal entries are not always repeated. Where two headings read alike, the source gives them in different places.

For the molecule `O=c1c2cc(F)ccc2sn1-c1cc(S(=O)(=O)N2CCOCC2)ccc1N1CCOCC1` [ML-345], the MIC in data set [1] (SC5314, 48 h, pH 7, read-out: Minimal Inhibitory Concentration (MIC): MM, HEPES 7.0) is above 500 µM; in data set [1] (SC5314, 48 h, pH 7, read-out: Minimal Inhibitory Concentration (MIC): RPMI, MOPS 7.0) it was 31.3 µM (≈ 15 µg/mL); in data set [1] (SC5314, 48 h, read-out: Minimal Inhibitory Concentration (MIC): MM) it was above 500 µM. Moreover, the “effect on cells grown in the minimal media” value in data set [1] (minimal media) is recorded as “had no effect”. The IC50 in data set [2] (setting [5]) is ≤ 20 µM and ~15.5 µM.
For the molecule `CC(C)c1cc(C(C)C)c(CC(=O)NS(=O)(=O)Oc2c(C(C)C)cccc2C(C)C)c(C(C)C)c1` [Avasimibe], the MIC in data set [1] (setting [6]), in data set [1] (setting [7]) and in data set [1] (setting [8]) was above 500 µM throughout. Also, the “effect on cell growth in all three media” value in data set [1] is given as “did not affect cell growth”. The IC50 in data set [2] (setting [5]) is around 23.4 µM. Besides, the “solubility in MIC media” value in data set [3] is “precipitated at high concentrations”.
Turning to `O=c1sn(-c2cccc3ccccc23)c(=O)n1Cc1ccccc1` [Tideglusib], the MIC in data set [1] (setting [6]), in data set [1] (setting [7]) and in data set [1] (setting [8]) was above 500 µM throughout. Also, in data set [1], the “effect on cell growth in all three media” value is given as “did not affect cell growth”. In addition, the IC50 in data set [2] (Best-fit IC50, inhibition of Cho1, 10-point dose-response) was ≤ 20 µM and ~8.53 µM. Moreover, in data set [3] (concentrations 0.5 to 250 µM), the “solubility in MIC media” value is “precipitated at high concentrations”.
On to `c1ccc(Nc2nc3c(s2)CCCc2[nH]ncc2-3)nc1` [TC-N 22A], for which the IC50 in data set [2] (setting [5]) is around 65.3 µM.

B1: Candida albicans phosphatidylserine synthase Cho1 (enzyme, UniProt A0A1D8PF32 1-273, looked up)
chain: MSDSSATGFSKHQESAIVSDSEGDAIDSELHMSANPPLLRRSSSLFSLSSKDDLPKPDSKEYLKFIDDNRHFSMIRNLHMADFITLLNGFSGFYSIISCLRYTLTGQTHYVQRAHFFILLGLFFDFFDGRVARLRNKSSLMGQELDSLADLVSFGVSPATIAFAIGFRTTVDVLFLAFWVLCGLTRLARFNISVNNIPKDKHGKSQYFEGLPIPTNLFWVGFMALLVYKDWIHDNLPFGIVFQDTSFEFHLVTIGFVLQGCAEISKSLKIPKP
notes: Cho1, phosphatidylserine synthase (EC 2.7.8.8) of Candida albicans, CHO1 gene expressed from the TEF1 promoter; A TEV site (ENLYFQG) lies between Cho1 and the HAx3-HISx8 tag; The forward cloning primer begins at the ATG of CHO1; also called PS synthase; CDP-diacylglycerol-serine O-phosphatidyltransferase; not shown: HAx3, C-terminal, cleaved; His8, C-terminal, cleaved
Regarding B1, the “stoichiometry N” value in data set [4] is 6.

(Values after paper PMC11077991, “The small molecule CBR-5884 inhibits the Candida albicans phosphatidylserine synthase” (mBio, 2024).)
